Patent publication US20220305020A1, “THE USE OF PARAXANTHINE TO REDUCE EXERCISE-INDUCED MENTAL FATIGUE” (Ingenious Ingredients, LP, priority 2021, published 2022)

How the values were obtained:
[1] = system: trained runners; assay: Berg-Wisconsin Card Sorting Test (BCST) before and after a mentally fatiguing 10-km run; type: in vivo, human; conditions: 200 mg oral; after 10-km run compared to pre-exhaustive exercise
Method: (§1) Trained runners from local running and triathlon clubs and races were recruited to participate in this study. Cognitive performance was assessed prior and after a mentally fatiguing endurance run. Eligibility criteria included healthy trained runners or triathletes between 18-40 years of age, current (>6 months) history of run training, and documented evidence that they averaged 8 minute/mile or less running pace during a recent competition (e.g., completing a 5-km road race or marathon). Qualified runners were invited to attend a familiarization session which provided an overview of the study and participants informed consent to participate in the study. A total of 32 individuals responded to study advertisements and were assessed for eligibility, 28 completed a familiarization session, 13 met eligibility requirements, agreed to participant in the study and were randomized into treatments. 1 subject dropped out of the study due to not complying with the study protocol. 12 subjects (11 males, 1 female) ultimately finished the trial. Volunteers visited the lab a total of five times including one familiarization session and four experimental sessions. During the familiarization session, participants were explained the study protocol, provided informed consent, answered a medical questionnaire, and had height, weight, resting heart rate, and resting blood pressure. Males then had body composition determined using dual energy X-ray absorptiometry (DXA) while females took a urine pregnancy test prior to the DXA scan to verify they were not pregnant. Participants then took each cognitive function test three times to familiarize them to the tests and establish test reliability. Volunteers practiced running on the treadmill to be used in the study at race pace. Once completed, the participants then performed a graded maximal cardiopulmonary (VO2 peak) treadmill test to determine peak heart rate and aerobic capacity. Participants were also asked to maintain usual eating habits and avoid new dietary supplements for the duration of the study. Participants were also asked to prepare for each testing session as they would a 10-km road race and refrain from vigorous physical activity, alcohol intake, and over-the-counter medications for 24 hours as well as fast for 8-12 hours prior to reporting to the lab. […] Upon arriving at the lab, participants had weight, resting heart rate, and blood pressure determined. Participants then completed a side effects questionnaire, performed two cognitive function tests, the Psychomotor Vigilance Task Test (PVTT), a test that objectively assesses fatigue-related changes in alertness, and the Berg-Wisconsin Card Sorting Test (BCST), donated a fasting blood sample, and then ingested 1 of 4 randomly assigned oral supplements (PRE). Supplements were administered in a double blind, randomized, and crossover manner using a Balanced Latin Square method to counterbalance the order of treatment administration. Treatments included (1) 400 mg of placebo (PL, wheat flour, Shandong Bailong Chuangyuan Bio-tec Co. Ltd., Dezhou, China); (2) 200 mg of PL+200 mg of Caffeine (CSPC Innovation Pharmaceutical Co. Ltd., Shi Jiazhuang, China); (3) 200 mg of PL+200 mg of […], Ingenious Ingredients, L.P. Lewisville, Tex., USA) or (4) 200 mg CA+200 mg of PX (CA+PX). Supplements were prepared using good manufacturing practices and certified for content. Supplements were the same size and appearance and packaged in generically labeled bottles for administration in a double-blind manner. Participants ingested one capsule with 8-ounces of water of the assigned treatment. Participants then rested for 15-minutes and repeated these tests. Volunteers then performed a 10-km run at their self-determined pace. Heart rate was obtained every kilometer during the run. Once completed, participants donated a venous blood sample. Participants then completed the cognitive function tests and the side effects questionnaire. […]

[2] = system: Male, 51; assay: Uchida-Kraepelin test (UKT), serial calculation test of mental fatigue; type: in vivo, human; conditions: one subject; for increase of mean performance during the first 15-minutes of UKT / mental fatigue (gradual decrease in performance) during the second 15-minutes of UKT: 200 mg of paraxanthine or 200 ng of caffeine
Method: […], consumed 200 mg of paraxanthine or […] or placebo, separated by one-week wash-out, prior to performing a serial calculation test, the Uchida-Kraepelin test (UKT), that is designed to measure mental fatigue. The test has been standardized and is widely used in clinical psychology, psychiatry, and occupational mental health practice. In this test, a subject is instructed to perform serial calculation of random numbers printed on a paper for 15 minutes. After a 5-minute rest, another 15 minutes of calculations are performed. The test subject is instructed to compute as many calculations as possible. Performance is assessed by 1-minute intervals.

[3] = system: trained runners; assay: Psychomotor Vigilance Task Test (PVTT) before and after a mentally fatiguing 10-km run; type: in vivo, human
Method: as §1

[4] = system: catalase; assay: Catalase levels in young and old rats after paraxanthine supplementation; type: in vivo
[5] = system: BDNF; assay: BDNF levels in young and old rats after paraxanthine supplementation; type: in vivo
[6] = system: glutathione; assay: Glutathione levels in young and old rats after paraxanthine supplementation; type: in vivo
[7] = 200 mg oral, compared to pre-exhaustive exercise
[8] = old rats, high-dose paraxanthine group
[9] = old rats, low-dose paraxanthine group
[10] = young rats, high-dose paraxanthine group
[11] = young rats, low-dose paraxanthine group

**Q.** For `Cn1c(=O)c2c(ncn2C)n(C)c1=O` [caffeine, reference compound], which “increase in number of correct responses in the BCST” value [1] is on record?
**A.** did not change

**Q.** What about the “increase in number of errors in the BCST” value [1] of the same compound?
**A.** 19.4%

**Q.** What about the “increase in number of preservative errors (PAR rules) in the BCST” value [1] of the same compound?
**A.** 23.3%

**Q.** And the “increase in number of preservative errors in the BCST” value [1]?
**A.** 15.9%

**Q.** And the “increase of mean performance during the first 15-minutes of UKT” value [2]?
**A.** 7%

**Q.** And the “mental fatigue (gradual decrease in performance) during the second 15-minutes of UKT” value [2]?
**A.** failed to prevent metal fatigue

**Q.** `Cn1c(=O)[nH]c2ncn(C)c2c1=O` [paraxanthine] was tested. Which “greater improvement in reaction time compared to caffeine, trial 2” value ([3]; 200 mg oral each, PVTT) did it give?
**A.** 25%

**Q.** And the “greater improvement in reaction time compared to caffeine, trial 10” value ([3]; 200 mg oral each, PVTT)?
**A.** 44%

**Q.** And the “greater improvement in reaction time compared to caffeine, trial 20” value ([3]; 200 mg oral each, PVTT)?
**A.** 12%

**Q.** What about the “improvement of reaction time in the PVT Test, early trials (trial 2)” value [3, 7] of the same compound?
**A.** 7.3%

**Q.** And the “improvement of reaction time in the PVT Test, late trials (trial 20)” value [3, 7]?
**A.** 10.9%

**Q.** And the “improvement of reaction time in the PVT Test, middle trials (trial 10)” value [3, 7]?
**A.** 10.9%

**Q.** What about the catalase levels [4, 8] of the same compound?
**A.** 36.84±1.68 U/mL

**Q.** What about the catalase levels [4, 9] of the same compound?
**A.** 29.34±1.50 U/mL

**Q.** What about the catalase levels [4, 10] of the same compound?
**A.** 38.91±2.65 U/mL

**Q.** And the catalase levels [4, 11]?
**A.** 30.24±1.58 U/mL

**Q.** What about the BDNF levels [5, 8] of the same compound?
**A.** 863.40 ± 35.21 pg/mL

**Q.** What about the BDNF levels [5, 9] of the same compound?
**A.** 776.40 ± 18.54 pg/mL

**Q.** And the BDNF levels [5, 10]?
**A.** 939.15 ± 42.34 pg/mL

**Q.** And the BDNF levels [5, 11]?
**A.** 828.05 ± 35.03 pg/mL

**Q.** What about the “increase in number of correct responses in the BCST” value [1] of the same compound?
**A.** 5.7%

**Q.** What about the “reduction in number of errors in the BCST” value [1] of the same compound?
**A.** 1.5%

**Q.** And the “reduction in number of preservative errors (PAR rules) in the BCST” value [1]?
**A.** 10.6%

**Q.** And the “reduction in number of preservative errors in the BCST” value [1]?
**A.** 4.6%

**Q.** What about the glutathione levels [6, 8] of the same compound?
**A.** 27.49 ± 0.84 µg/mL

**Q.** What about the glutathione levels [6, 9] of the same compound?
**A.** 22.27 ± 1.00 µg/mL

**Q.** And the glutathione levels [6, 10]?
**A.** 34.41 ± 1.97 µg/mL

**Q.** And the glutathione levels [6, 11]?
**A.** 24.04 ± 1.74 µg/mL

**Q.** And the “increase of mean performance during the first 15-minutes of UKT” value [2]?
**A.** 15%

**Q.** And the “mental fatigue (gradual decrease in performance) during the second 15-minutes of UKT” value [2]?
**A.** prevented mental fatigue

**Q.** What about the “increase of mean performance during the second 15-minutes of UKT” value ([2]; 200 mg of paraxanthine) of the same compound?
**A.** 21%
